Source: patent publication US20120321694A1, “COMPOSITIONS AND USES” (priority 2010, published 2012)
Where no end group is shown, it is not given here. The star is where a group is joined. Pam3Cys = N-terminal lipid (lipidation), CCCCCCCCCCCCCCCC(=O)N[C@@H](CSCC(COC(=O)CCCCCCCCCCCCCCC)OC(=O)CCCCCCCCCCCCCCC)C(=O)*

Assays:
BV2 microglia cells = assay: In vitro phagocytosis of Aβ1-42 in BV2 cells (Western blot); assay type: cell-based, mouse; settings: 5 μg/mL cytochalasin D, 30 min before; FIG. 16
Description: For total Aβ detection, 10-30 μg of cell extracts were separated on a precast 10-20% SDS polyacrylamide Tris-Tricine gel (Bio-Rad, Canada). Separated proteins were then transferred onto polyvinylidene fluoride (PVDF) membranes (PerkinElmer, Canada). Membrane were incubated in DPBS (Gibco, USA) at 90° C. for 10 min. […] Films were digitalized using a HP Scanjet 4370 (HP) and signal intensity was measured using ImageJ (version 1.44p, NIH).
BV2 microglia cells were seeded at 900000 cells/60 mm cell culture Petri dish 24 hours prior the experiment, and cultured in complete media (Dulbecco's Modified Eagle Medium (DMEM, Gibco, USA) supplemented with 10% fetal bovine serum (FBS) (Gibco, USA), 1 mM sodium pyruvate (Gibco, USA) and 100 U/mL of penicillin and 100 μg/mL of streptomycin (Gibco, USA)). […] Protein concentration in supernatant or cell extracts was then measured using the Bradford method (Coomassie Plus, The better Bradford assay reagent, Thermoscientific, USA) accordingly to the manufacturer recommendation and equal amount of protein were then analyzed by Western blot. […]

Aβ42 = assay: Anti-Aβ42 immunogenicity in amyloid deposition mouse model; assay type: in vivo, TASTPM mice; settings: 12 injections, intramuscular route; FIG. 29
TASTPM mice [1] = assay: T-water maze in TASTPM mice; assay type: in vivo; settings: 12 weekly i.m. injections; vs PBS; FIG. 30
Description: To determine whether a TLR2 agonist will improve the cognitive impairment in TASTPM mice, the Pam3CysLip adjuvant fused to the Aβ1-6 peptide was injected 12 times at weekly basis using the intramuscular route and the memory was assessed using the T-water maze test. […] TASTPM mice have received one a week for a period of 12 weeks the following treatment: PBS or mice have received once a week for a period of 12 weeks the following treatment: PBS or of Pam3CysLip Aβ1-6 peptide.

TASTPM mice [2] = assay: Survival of TASTPM mice; assay type: in vivo; settings: weekly injections, followed for 112 days; PBS 13 out 25; FIG. 31
Excerpt: The usage of the TLR2 agonist, i.e. Pam3CysLip Aβ1-6 peptide, improves the survival rate of TASTPM mouse model. 23 out of 25 mice survived after weekly injections of Pam3CysLip Aβ1-6 peptide compared to PBS injected animals in which only 13 out 25 TASTPM mice survived (followed for 112 days).

Row | Compound | effect on 2E7-stimulated cellular uptake of Aβ1-42 (BV2 microglia cells) | anti Aβ42 specific immunogenicity (Aβ42) | T-water maze, right-left discrimination tests (working memory) (TASTPM mice [1]) | mice survived (TASTPM mice [2])
1 | C=C1[C@@H](C)[C@H]2[C@H](Cc3ccccc3)NC(=O)[C@]23[C@H](OC(C)=O)/C=C/[C@@](C)(O)C(=O)[C@@H](C)C/C=C/[C@H]3[C@@H]1O [cytochalasin D] | further inhibited | – | – | –
2 | Pam3Cys—SQ EPAAPAAEAT PAAEAPDAEFRH (Pam3Cys-SQEPAAPAAEATPAAEAPDAEFRH) [Pam3CysLip Aβ1-6 peptide] | – | High and specific anti Aβ42 specific immunogenicity | trend of improvement | 23 out of 25
